Activity calls are given as the source filed them. The rule behind the calls is not given here.
Experiments:
P388 [1] = assay: Antineoplastic activity against mouse P388 cells allografted in CDF1 mouse assessed as survival at 12.5 mg/kg qd for 9 days; assay type: functional, organism-based; set-up: dose 12.5 mg/kg
P388 [2] = assay: Antineoplastic activity against mouse P388 cells allografted in CDF1 mouse assessed as survival at 6.25 mg/kg qd for 9 days; assay type: functional, organism-based; set-up: dose 6.25 mg/kg
P388 [3] = assay: Antineoplastic activity against mouse P388 cells allografted in CDF1 mouse at 6.25 mg/kg qd for 9 days relative to control; assay type: functional
P388 [4] = assay: Antineoplastic activity against mouse P388 cells allografted in CDF1 mouse at 12.5 mg/kg qd for 9 days relative to control; assay type: functional
P388 [5] = assay: Antineoplastic activity against mouse P388 cells allografted in CDF1 mouse assessed as survival at 50 mg/kg qd for 9 days; assay type: functional, organism-based; set-up: dose 50 mg/kg
B16 [6] = assay: Antineoplastic activity against mouse B16 cells allografted in BDF1 mouse assessed as survival at 100 mg/kg qd for 9 days; assay type: functional, organism-based; set-up: dose 100 mg/kg
P388 [7] = assay: Antineoplastic activity against mouse P388 cells allografted in CDF1 mouse at 100 mg/kg qd for 9 days relative to control; assay type: functional
B16 [8] = assay: Antineoplastic activity against mouse B16 cells allografted in BDF1 mouse at 50 mg/kg qd for 9 days relative to control; assay type: functional
B16 [9] = assay: Antineoplastic activity against mouse B16 cells allografted in BDF1 mouse at 100 mg/kg qd for 9 days relative to control; assay type: functional
P388 [10] = assay: Antineoplastic activity against mouse P388 cells allografted in CDF1 mouse assessed as survival at 100 mg/kg qd for 9 days; assay type: functional, organism-based; set-up: dose 100 mg/kg
L1210 [11] = assay: Antineoplastic activity against mouse L1210 cells allografted in CDF1 mouse at 25 mg/kg qd for 9 days relative to control; assay type: functional
L1210 [12] = assay: Antineoplastic activity against mouse L1210 cells allografted in CDF1 mouse assessed as survival at 25 mg/kg qd for 9 days; assay type: functional, organism-based; set-up: dose 25 mg/kg
P388 [13] = assay: Antineoplastic activity against mouse P388 cells allografted in CDF1 mouse at 50 mg/kg qd for 9 days relative to control; assay type: functional
B16 [14] = assay: Antineoplastic activity against mouse B16 cells allografted in BDF1 mouse assessed as survival at 50 mg/kg qd for 9 days; assay type: functional, organism-based; set-up: dose 50 mg/kg
P388 [15] = assay: Antineoplastic activity against mouse P388 cells allografted in CDF1 mouse at 10 mg/kg qd for 9 days relative to control; assay type: functional
P388 [16] = assay: Antineoplastic activity against mouse P388 cells allografted in CDF1 mouse assessed as survival at 5 mg/kg qd for 9 days; assay type: functional, organism-based; set-up: dose 5 mg/kg
L1210 [17] = assay: Antineoplastic activity against mouse L1210 cells allografted in CDF1 mouse at 30 mg/kg qd for 9 days relative to control; assay type: functional
B16 [18] = assay: Antineoplastic activity against mouse B16 cells allografted in BDF1 mouse assessed as survival at 20 mg/kg qd for 9 days; assay type: functional, organism-based; set-up: dose 20 mg/kg
Colon 26 [19] = assay: Antineoplastic activity against mouse Colon 26 cells allografted in CDF1 mouse at 10 mg/kg qd for 9 days relative to control; assay type: functional
Colon 26 [20] = assay: Antineoplastic activity against mouse Colon 26 cells allografted in CDF1 mouse at 20 mg/kg qd for 9 days relative to control; assay type: functional
B16 [21] = assay: Antineoplastic activity against mouse B16 cells allografted in BDF1 mouse assessed as survival at 80 mg/kg qd for 9 days; assay type: functional, organism-based; set-up: dose 80 mg/kg
P388 [22] = assay: Antineoplastic activity against mouse P388 cells allografted in CDF1 mouse assessed as survival at 10 mg/kg qd for 9 days; assay type: functional, organism-based; set-up: dose 10 mg/kg
B16 [23] = assay: Antineoplastic activity against mouse B16 cells allografted in BDF1 mouse assessed as survival at 40 mg/kg qd for 9 days; assay type: functional, organism-based; set-up: dose 40 mg/kg
P388 [24] = assay: Antineoplastic activity against mouse P388 cells allografted in CDF1 mouse assessed as survival at 40 mg/kg qd for 9 days; assay type: functional, organism-based; set-up: dose 40 mg/kg
B16 [25] = assay: Antineoplastic activity against mouse B16 cells allografted in BDF1 mouse at 20 mg/kg qd for 9 days relative to control; assay type: functional
L1210 [26] = assay: Antineoplastic activity against mouse L1210 cells allografted in CDF1 mouse at 15 mg/kg qd for 9 days relative to control; assay type: functional
P388 [27] = assay: Antineoplastic activity against mouse P388 cells allografted in CDF1 mouse at 40 mg/kg qd for 9 days relative to control; assay type: functional
B16 [28] = assay: Antineoplastic activity against mouse B16 cells allografted in BDF1 mouse assessed as survival at 10 mg/kg qd for 9 days; assay type: functional, organism-based; set-up: dose 10 mg/kg
P388 [29] = assay: Antineoplastic activity against mouse P388 cells allografted in CDF1 mouse at 20 mg/kg qd for 9 days relative to control; assay type: functional
P388 [30] = assay: Antineoplastic activity against mouse P388 cells allografted in CDF1 mouse at 5 mg/kg qd for 9 days relative to control; assay type: functional
B16 [31] = assay: Antineoplastic activity against mouse B16 cells allografted in BDF1 mouse at 80 mg/kg qd for 9 days relative to control; assay type: functional
B16 [32] = assay: Antineoplastic activity against mouse B16 cells allografted in BDF1 mouse at 40 mg/kg qd for 9 days relative to control; assay type: functional
P388 [33] = assay: Antineoplastic activity against mouse P388 cells allografted in CDF1 mouse assessed as survival at 20 mg/kg qd for 9 days; assay type: functional, organism-based; set-up: dose 20 mg/kg
L1210 [34] = assay: Antineoplastic activity against mouse L1210 cells allografted in CDF1 mouse assessed as survival at 15 mg/kg qd for 9 days; assay type: functional, organism-based; set-up: dose 15 mg/kg
Colon 26 [35] = assay: Antineoplastic activity against mouse Colon 26 cells allografted in CDF1 mouse assessed as survival at 20 mg/kg qd for 9 days; assay type: functional, organism-based; set-up: dose 20 mg/kg
B16 [36] = assay: Antineoplastic activity against mouse B16 cells allografted in BDF1 mouse at 10 mg/kg qd for 9 days relative to control; assay type: functional

Question: What does the source list for CCN(CC)CCC1=C(Cl)C(=O)c2ccccc2C1=O?
Answer: Activity (P388 [1]): Active; Activity (P388 [2]): Active; T/C (P388 [3]): 96%; T/C (P388 [4]): 101%

Question: Which Activity (P388 [5]) does the source give for OCCNCCNc1ccnc2cc(Cl)ccc12 here?
Answer: Active

Question: And the Activity (B16 [6])?
Answer: Active

Question: What about the T/C (P388 [7]) of the same compound?
Answer: 118%

Question: What about the T/C (B16 [8]) of the same compound?
Answer: 99%

Question: What about the T/C (B16 [9]) of the same compound?
Answer: 110%

Question: What about the Activity (P388 [10]) of the same compound?
Answer: Active

Question: What about the T/C (L1210 [11]) of the same compound?
Answer: 111%

Question: What about the Activity (L1210 [12]) of the same compound?
Answer: Active

Question: What about the T/C (P388 [13]) of the same compound?
Answer: 116%

Question: And the Activity (B16 [14])?
Answer: Active

Question: CN(C)CCNc1ccc(NCCN(C)C)c2c1C(=O)c1ccccc1C2=O was tested. Which T/C (P388 [15]) did it give?
Answer: 149%

Question: And the Activity (P388 [16])?
Answer: Active

Question: What about the T/C (L1210 [17]) of the same compound?
Answer: 150%

Question: What about the Activity (B16 [18]) of the same compound?
Answer: Active

Question: And the T/C (Colon 26 [19])?
Answer: 123%

Question: What about the T/C (Colon 26 [20]) of the same compound?
Answer: 113%

Question: What about the Activity (B16 [21]) of the same compound?
Answer: Active

Question: What about the Activity (P388 [22]) of the same compound?
Answer: Active

Question: What about the Activity (B16 [23]) of the same compound?
Answer: Active

Question: And the Activity (P388 [24])?
Answer: Active

Question: What about the T/C (B16 [25]) of the same compound?
Answer: 142%

Question: What about the T/C (L1210 [26]) of the same compound?
Answer: 117%

Question: And the T/C (P388 [27])?
Answer: 202%

Question: What about the Activity (B16 [28]) of the same compound?
Answer: Active

Question: And the T/C (P388 [29])?
Answer: 163%

Question: What about the T/C (P388 [30]) of the same compound?
Answer: 133%

Question: What about the T/C (B16 [31]) of the same compound?
Answer: 146%

Question: What about the T/C (B16 [32]) of the same compound?
Answer: 148%

Question: What about the Activity (P388 [33]) of the same compound?
Answer: Active

Question: And the Activity (L1210 [34])?
Answer: Active

Question: And the Activity (Colon 26 [35])?
Answer: Active

Question: What about the T/C (B16 [36]) of the same compound?
Answer: 125%

Question: For CN(C)CCC1=C(Cl)C(=O)c2ccccc2C1=O, which Activity (P388 [1]) is on record?
Answer: Active

Question: What about the Activity (P388 [2]) of the same compound?
Answer: Active

Question: What about the T/C (P388 [3]) of the same compound?
Answer: 94%

Question: And the T/C (P388 [4])?
Answer: 97%

— ChEMBL document CHEMBL3244053, “Structural modification study of bis(substituted aminoalkylamino)anthraquinones. An evaluation of the relationship of the [2-[(2-hydroxyethyl)amino]ethyl]amino side chain with antineoplastic activity” (1979)
